In test [1] the test system is rodent GSK3β homologs. Particulars: cited from earlier work.
Test [2] relates to human stem cells. Nature of the test: Differentiation of human stem cells into sensory neuron subtypes in E8/E6 medium (TrkA, TrkB, TrkC). Format: cell-based. Particulars: CHIR99021 3 μM, 1.5 μM and 0.75 μM from day 2 through day 12, FIG. 3B. The procedure: An E8/E6 medium was used to differentiate human stem cells into sensory neurons, including nociceptors, proprioceptors, and mechanoceptors. […] On day 4, day 8, day 12, and day 16, the cells were measured for CD49d expression. […] On day 16 and day 20, cells were stained for BRN3A, TUJ1, and DAPI. […] TrkA is a nociceptor marker, TrkB is a mechanoreceptor marker, and TrkC is a proprioceptor marker.

In the case of `Cc1c[nH]c(-c2cnc(NCCNc3ccc(C#N)cn3)nc2-c2ccc(Cl)cc2Cl)n1` [CHIR99021, 6-(2-(4-(2,4-dichlorophenyl)-5-(4-methyl-1H-imidazol-2-yl)pyrimidin-2-ylamino)ethylamino)nicotinonitrile], in test [1], the “IC50 values against rodent GSK3β homologs” value is listed as “nanomolar”. Also, in test [2], the “generation of the three sensory neuron subtypes (nociceptors, proprioceptors, mechanoreceptors)” value is reported as “generated at similar efficiencies”.

The record behind these values is patent publication US11542470B2, “Methods of differentiating stem cell-derived proprioceptors” (MEMORIAL SLOAN-KETTERING CANCER CENTER, priority 2016, dated 2023).
